Reference: US20260021103A1, “IKZF2 AND CK1-ALPHA DEGRADING COMPOUNDS AND USES THEREOF” (President and Fellows of Harvard College, priority 2022, published 2026)

Key:
DLBCL cell line OCI-LY3 = assay: 5-day MTT assay in OCI-LY3 cells; type: cell-based; details: OCI-LY3, 5-day MTT assay
Procedure: (§1) Viability Assay: 10,000 cells (e.g., MOLM-13 cells, MLL-AF9 leukemic cells or normal BM cells) were plated onto flat-bottom 96-well plates in media with increasing concentration of compound up to […]. […] For measuring viability, Cell-Titer Glo kit (Promega) or MTT kit was used following manufacturer's instructions. For Cell-Titer Glo assay, cells were cooled to room temperature for 20-30 min, 100 μL of the cultured cells were transferred to opaque-white bottom 96-well plates and mixed with 100 μL of Cell-Titer Glo reagent. The mixture was incubated for 15 min at room temperature and read using a Synergy H1 Hybrid reader (BioTek) for luminescence. Data was normalized as percentage viability and graphed by non-linear regression curves in Graph Pad PRISM 7.0.

MOLM-13 cells [1] = assay: Cell viability assay in MOLM-13 cells; type: cell-based; details: Homo sapiens, read-out: IC50 (cytotoxicity)
Procedure: Viability Assay: 10,000 cells (e.g., MOLM-13 cells, MLL-AF9 leukemic cells or normal BM cells) were plated onto flat-bottom 96-well plates in media with increasing concentration of compound up to 100 µM. Cells were cultured for 72 h at 37° C. in a 5% CO2 incubator. For measuring viability, Cell-Titer Glo kit (Promega) or MTT kit was used following manufacturer's instructions. For Cell-Titer Glo assay, cells were cooled to room temperature for 20-30 min, 100 μL of the cultured cells were transferred to opaque-white bottom 96-well plates and mixed with 100 μL of Cell-Titer Glo reagent. The mixture was incubated for 15 min at room temperature and read using a Synergy H1 Hybrid reader (BioTek) for luminescence. Data was normalized as percentage viability and graphed by non-linear regression curves in Graph Pad PRISM 7.0.

[2] = In vitro solubility in DMSO; type: physicochemical
[3] = system: endometrioid ovarian cancer cell line A2780; assay: 5-day MTT assay in A2780 cells; type: cell-based; details: A2780, 5-day MTT assay
Procedure: as §1

[4] = system: small cell lung cancer cell line NCI-H1048; assay: 5-day MTT assay in NCI-H1048 cells; type: cell-based; details: NCI-H1048, 5-day MTT assay
Procedure: as §1

MLL-AF9 Crbn^1391V cells [5] = assay: Survival of Crbn^1391V mice transplanted with MLL-AF9 Crbn^1391V cells; type: in vivo; details: 223 mg/kg weekly
IKZF1 = target: T1, IKZF1 (Homo sapiens, UniProt Q13422+Q96SW2); assay: Flow cytometry for measuring degradation, HEK293T GFP-POI reporter cells (IKZF1); type: cell-based; details: 24 h, HEK293T GFP reporter
T1 construct: expressed in transfected cells; host or cells: HEK293T (lentiviral transduction, puromycin selection, FACS sorting)

AML PDX cells = assay: AML PDX model in NSG mice; type: in vivo
Procedure: (§2) In vivo drug administration in MLL-AF9 and PDX mouse model: A total of 250,000 of MLL-AF9 BM secondary mouse leukemia cells were injected retroorbitally into 6-8 weeks-old female C57BL/6 recipient mice that has been sublethally irradiated at 450 cGy. For AML PDX model, 1 million PDX cells were transplanted by intravenous injection into 8-10 weeks old female NSG mice that had been sublethally irradiated at 200 rads 24 hr before transplant. […] DEG-77 was treated at 223 mg/kg in DMSO in 50 ul volume. Mice weight was monitored every day to check for toxicity. Mice were sacrificed when moribund, and organ weights were measured for disease burden. Spleen and bone marrow cells were isolated and processed for western blot analysis. All animal studies were performed on animal protocols approved by the Institutional Animal Care and Use Committee (IACUC) at Memorial Sloan Kettering Cancer Center. […] Plasma was extracted from each mouse after indicated time and DEG-35 in plasma was measured using HPLC. For examining the toxicity of DEG-77 in the hematopoietic system of Crbn^1391V mice, four rounds of DMSO or 223 mg/kg DEG-77 was treated in 8-12 weeks old female Crbn^1391V mice. Mice were injected once a week and were sacrificed 4 weeks later for blood analysis using the Element HT5 Hematology Analyzer (HESKA) and analysis of the hematopoietic cells by flow cytometry.

[6] = In vitro metabolic stability; type: in vitro ADME; details: read-out: in vitro metabolic stability t1/2
[7] = Pharmacokinetics, plasma concentration in mice; details: male, CD1, mouse, ip, single intraperitoneal injection at 5 mg/kg, read-out: in vivo half-life t1/2 (converted)
Procedure: as §2

MLL-AF9 Crbn^1391V cells [8] = assay: Survival of BL6 mice transplanted with MLL-AF9 Crbn^1391V cells; type: in vivo; details: 223 mg/kg once per week
Procedure: Generation of MLL-AF9 Crbn^1391V leukemic cells: Lin-Sca+ Kit+ (LSK) cells were isolated from bone marrow cells of wildtype or Crbn^1391V mice that were 6 to 8 weeks old. Briefly, bone marrow cells were enriched for c-Kit positive cells by incubating with CD117/c-Kit microbeads and then processed through the autoMACS Pro Separator (Miltenyi Biotec), following the manufacturer's instructions. CKit enriched cells were stained with Lineage antibody cocktail (CD3, CD4, CD8, Gr1, B220, CD19, TER119 conjugated with PeCy5), Scal-Pac Blue, CD34-FITC, SLAM-APC, CD48-PE, and c-KIT-APC-Cy7. After staining, cells were sorted for LSK cells using a BD FACS Aria II instrument. Sorted LSK cells were incubated overnight in Stemspan SFEM medium (Stem Cell Technologies) with 10 ng/ml IL-3, 10 ng/ml IL-6, 50 ng/ml SCF. 10 ng/ml thrombopoietin (TPO), and 20 ng/ml FLT-3 ligand. […]
In vivo drug administration in MLL-AF9 and PDX mouse model: A total of 250,000 of MLL-AF9 BM secondary mouse leukemia cells were injected retroorbitally into 6-8 weeks-old female C57BL/6 recipient mice that has been sublethally irradiated at 450 cGy. […] Mice weight was monitored every day to check for toxicity. Mice were sacrificed when moribund, and organ weights were measured for disease burden. […] Plasma was extracted from each mouse after indicated time and DEG-35 in plasma was measured using HPLC. […]

MOLM-13 cells [9] = assay: Survival of NSG mice transplanted with MOLM-13 cells; type: in vivo; details: MOLM-13 transplanted mice, 223 mg/kg weekly
GSPT1 [10] = target: T2, GSPT1 (Homo sapiens, UniProt P15170+Q96SW2); assay: Western blot of NCI-H1048 cells for GSPT1; type: cell-based; details: 24 h
[11] = Toxicity in hematopoietic system of Crbn^1391V mice; type: in vivo; details: four rounds, 223 mg/kg weekly
Procedure: as §2

IKZF2 = target: T3, IKZF2 (Homo sapiens, UniProt Q96SW2+Q9UKS7); assay: Flow cytometry for measuring degradation, HEK293T GFP-POI reporter cells (IKZF2); type: cell-based
T3 construct: expressed in transfected cells; host or cells: HEK293T (lentiviral transduction, puromycin selection, FACS sorting)

GSPT1 [12] = target: T2, GSPT1; assay: Flow cytometry for measuring degradation, HEK293T GFP-POI reporter cells (GSPT1); type: cell-based; design: expressed in transfected cells; host or cells: HEK293T; details: 24 h, HEK293T GFP reporter
CK1α = target: T4, CK1α (Homo sapiens, UniProt P48729+Q96SW2); assay: Flow cytometry for measuring degradation, HEK293T GFP-POI reporter cells (CK1α); type: cell-based
T4 construct: expressed in transfected cells; host or cells: HEK293T (lentiviral transduction, puromycin selection, FACS sorting)

[13] = 100 nM, 24 h, HEK293T GFP reporter
[14] = 1 μM, 24 h, HEK293T GFP reporter

T2 sequence (P15170 whole entry): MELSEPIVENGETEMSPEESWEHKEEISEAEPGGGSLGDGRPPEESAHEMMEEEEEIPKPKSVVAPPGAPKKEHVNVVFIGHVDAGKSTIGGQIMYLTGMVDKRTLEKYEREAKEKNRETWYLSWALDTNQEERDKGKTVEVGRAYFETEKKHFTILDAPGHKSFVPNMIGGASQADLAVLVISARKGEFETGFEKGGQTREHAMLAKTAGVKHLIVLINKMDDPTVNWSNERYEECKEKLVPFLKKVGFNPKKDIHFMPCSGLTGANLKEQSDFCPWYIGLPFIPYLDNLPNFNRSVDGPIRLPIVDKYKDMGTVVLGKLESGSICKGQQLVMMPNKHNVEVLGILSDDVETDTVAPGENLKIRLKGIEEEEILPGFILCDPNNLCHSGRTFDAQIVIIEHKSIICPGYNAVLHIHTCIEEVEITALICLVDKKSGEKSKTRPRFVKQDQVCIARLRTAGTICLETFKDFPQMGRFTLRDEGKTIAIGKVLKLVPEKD
T2 sequence (Q96SW2 whole entry): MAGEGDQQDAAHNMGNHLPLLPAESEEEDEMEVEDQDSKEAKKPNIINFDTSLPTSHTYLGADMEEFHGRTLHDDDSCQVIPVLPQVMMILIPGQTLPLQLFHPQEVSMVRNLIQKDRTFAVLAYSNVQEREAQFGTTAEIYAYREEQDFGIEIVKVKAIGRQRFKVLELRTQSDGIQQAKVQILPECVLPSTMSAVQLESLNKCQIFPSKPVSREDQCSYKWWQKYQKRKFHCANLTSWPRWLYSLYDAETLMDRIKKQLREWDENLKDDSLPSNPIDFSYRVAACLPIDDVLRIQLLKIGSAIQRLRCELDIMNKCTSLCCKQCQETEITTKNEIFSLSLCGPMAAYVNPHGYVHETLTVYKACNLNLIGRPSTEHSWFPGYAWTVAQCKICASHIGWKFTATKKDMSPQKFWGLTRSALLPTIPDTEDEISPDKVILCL
T2 sequence (Q16531 whole entry partner): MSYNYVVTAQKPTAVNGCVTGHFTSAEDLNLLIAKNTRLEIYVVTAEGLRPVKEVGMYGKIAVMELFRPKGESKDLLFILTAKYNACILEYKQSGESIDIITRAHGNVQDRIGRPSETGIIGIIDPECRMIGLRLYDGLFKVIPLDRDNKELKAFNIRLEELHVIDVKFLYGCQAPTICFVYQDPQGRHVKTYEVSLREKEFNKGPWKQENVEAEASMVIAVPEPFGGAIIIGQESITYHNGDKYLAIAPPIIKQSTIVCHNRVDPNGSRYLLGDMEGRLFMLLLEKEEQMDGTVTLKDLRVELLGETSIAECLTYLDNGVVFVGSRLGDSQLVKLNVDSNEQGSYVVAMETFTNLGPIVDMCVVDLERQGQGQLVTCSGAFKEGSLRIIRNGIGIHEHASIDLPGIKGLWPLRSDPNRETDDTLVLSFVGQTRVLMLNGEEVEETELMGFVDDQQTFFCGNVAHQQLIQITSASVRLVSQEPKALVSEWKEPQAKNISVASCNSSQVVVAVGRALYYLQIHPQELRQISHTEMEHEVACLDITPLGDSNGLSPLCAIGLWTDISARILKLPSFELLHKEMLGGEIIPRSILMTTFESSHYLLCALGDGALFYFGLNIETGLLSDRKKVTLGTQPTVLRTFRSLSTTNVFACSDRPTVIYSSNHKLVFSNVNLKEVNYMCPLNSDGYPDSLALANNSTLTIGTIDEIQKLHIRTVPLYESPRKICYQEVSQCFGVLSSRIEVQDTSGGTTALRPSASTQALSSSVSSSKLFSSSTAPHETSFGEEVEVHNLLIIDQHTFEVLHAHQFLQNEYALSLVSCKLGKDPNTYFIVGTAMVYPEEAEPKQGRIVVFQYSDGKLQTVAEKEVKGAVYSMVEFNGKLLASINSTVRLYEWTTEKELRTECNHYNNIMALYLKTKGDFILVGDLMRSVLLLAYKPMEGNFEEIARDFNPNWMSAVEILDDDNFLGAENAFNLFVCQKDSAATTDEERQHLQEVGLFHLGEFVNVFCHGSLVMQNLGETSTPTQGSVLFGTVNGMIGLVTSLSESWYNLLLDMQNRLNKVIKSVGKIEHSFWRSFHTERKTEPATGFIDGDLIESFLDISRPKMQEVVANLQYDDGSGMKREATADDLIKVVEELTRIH
T4 sequence (P48729 whole entry): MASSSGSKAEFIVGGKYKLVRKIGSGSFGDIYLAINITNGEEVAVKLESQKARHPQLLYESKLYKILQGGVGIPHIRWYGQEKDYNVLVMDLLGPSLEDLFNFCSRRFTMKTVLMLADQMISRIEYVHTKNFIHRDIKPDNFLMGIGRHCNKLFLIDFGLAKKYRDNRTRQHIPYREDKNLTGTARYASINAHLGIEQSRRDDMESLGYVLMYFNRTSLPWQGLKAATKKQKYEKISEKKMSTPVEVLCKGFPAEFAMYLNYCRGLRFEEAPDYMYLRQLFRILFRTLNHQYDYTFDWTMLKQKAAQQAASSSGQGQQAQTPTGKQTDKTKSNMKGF
T4 sequence (Q96SW2 whole entry): as the sequence (Q96SW2 whole entry) above
T4 sequence (Q16531 whole entry partner): as the sequence (Q16531 whole entry partner) above
T3 sequence (Q9UKS7 whole entry): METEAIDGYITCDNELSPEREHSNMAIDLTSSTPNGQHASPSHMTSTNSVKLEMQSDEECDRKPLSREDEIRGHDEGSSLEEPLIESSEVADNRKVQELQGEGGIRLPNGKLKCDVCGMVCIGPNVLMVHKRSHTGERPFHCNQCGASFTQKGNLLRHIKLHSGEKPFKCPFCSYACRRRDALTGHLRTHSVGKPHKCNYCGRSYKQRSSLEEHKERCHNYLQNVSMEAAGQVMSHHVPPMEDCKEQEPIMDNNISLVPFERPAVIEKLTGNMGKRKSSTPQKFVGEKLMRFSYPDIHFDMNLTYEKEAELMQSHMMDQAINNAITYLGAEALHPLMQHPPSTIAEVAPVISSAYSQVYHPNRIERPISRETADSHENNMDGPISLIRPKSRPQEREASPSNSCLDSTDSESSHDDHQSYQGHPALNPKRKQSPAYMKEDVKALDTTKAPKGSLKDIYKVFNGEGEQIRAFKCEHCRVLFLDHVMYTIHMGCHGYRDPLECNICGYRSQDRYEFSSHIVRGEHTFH
T3 sequence (Q96SW2 whole entry): as the sequence (Q96SW2 whole entry) above
T3 sequence (Q16531 whole entry partner): as the sequence (Q16531 whole entry partner) above
T1 sequence (Q13422 whole entry): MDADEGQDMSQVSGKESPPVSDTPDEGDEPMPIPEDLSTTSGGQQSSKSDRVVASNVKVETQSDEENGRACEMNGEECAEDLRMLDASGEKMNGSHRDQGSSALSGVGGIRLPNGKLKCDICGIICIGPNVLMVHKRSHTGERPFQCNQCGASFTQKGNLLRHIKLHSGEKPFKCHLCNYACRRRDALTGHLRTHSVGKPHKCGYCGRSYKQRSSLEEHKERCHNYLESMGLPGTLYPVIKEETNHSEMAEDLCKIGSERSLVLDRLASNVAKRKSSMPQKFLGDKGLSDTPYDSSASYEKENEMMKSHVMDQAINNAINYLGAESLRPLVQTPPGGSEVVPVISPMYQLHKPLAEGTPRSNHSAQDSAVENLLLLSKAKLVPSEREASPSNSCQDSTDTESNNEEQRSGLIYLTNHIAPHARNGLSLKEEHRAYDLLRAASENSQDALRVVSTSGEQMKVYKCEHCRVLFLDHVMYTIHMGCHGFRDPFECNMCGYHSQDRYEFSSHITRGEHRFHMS
T1 sequence (Q96SW2 whole entry): as the sequence (Q96SW2 whole entry) above
T1 sequence (Q16531 whole entry partner): as the sequence (Q16531 whole entry partner) above

Compound: COc1ccc2cc(C(=O)Nc3ccc4c(c3)CN(C3CCC(=O)NC3=O)C4=O)ccc2c1 (stereo not shown) [DEG-35, N-(2-(2,6-dioxopiperidin-3-yl)-1-oxoisoindolin-5-yl)-6-methoxy-2-naphthamide]
- EC50 (DLBCL cell line OCI-LY3; Homo sapiens, 120 h): 8 nM
- IC50 (MOLM-13 cells [1]): 6 nM
- solubility (in words) [2]: limited solubility

Compound: O=C1CCC(N2Cc3cc(CNC(=O)C(F)(F)c4ccc(Cl)cc4)ccc3C2=O)C(=O)N1 (stereo not shown) [CC-90009, reference compound]
- EC50 (DLBCL cell line OCI-LY3): 36 nM
- EC50 [3]: 269 nM
- EC50 [4]: 7 nM

Compound: COc1cccc2c1OCC(C(=O)Nc1ccc3c(c1)CN(C1CCC(=O)NC1=O)C3=O)=C2 (stereo not shown) [DEG-77, N-(2-(2,6-dioxopiperidin-3-yl)-1-oxoisoindolin-5-yl)-8-methoxy-2H-chromene-3-carboxamide]
- EC50 (DLBCL cell line OCI-LY3; Homo sapiens, 120 h): 14 nM
- IC50 (MOLM-13 cells [1]): 4 nM
- survival (in words) (MLL-AF9 Crbn^1391V cells [5]): significant increase in survival
- IKZF1% degradation at 100 nM (IKZF1; 100 nM): 10.7 ± 1.1%
- IKZF1% degradation at 1 μM (IKZF1; 1 μM): 29 ± 0.9%
- EC50 ([3]; Homo sapiens, 120 h): 27 nM
- survival (in words) (AML PDX cells; PDX AML model, weekly from 4 weeks post-transplant, 223 mg/kg): significant extension of survival
- engraftment of PDX cells in the bone marrow (AML PDX cells; after a single injection, >85% prior to treatment): around 40%
- half-life [6]: > 6 h
- half-life [7]: 8 h
- total body weight (in words) (MLL-AF9 Crbn^1391V cells [8]): without total body weight loss
- survival (MLL-AF9 Crbn^1391V cells [8]; vehicle treated mice 35 days): 66 days
- survival (in words) (MOLM-13 cells [9]): increased survival
- GSPT1 degradation by Western blot (in words) (GSPT1 [10]): did not affect protein levels
- sensitivity of NCI-H1048 cells (in words) [4]: selectively sensitive to DEG-35 and not DEG-77
- WBC counts (in words) [11]: modest reduction of WBC counts
- platelets and RBC counts (in words) [11]: remained unchanged
- DC50 (IKZF2): 15.3 nM
- IKZF2% degradation at 100 nM (IKZF2; [13]): 82.3 ± 0.6%
- IKZF2% degradation at 1 μM (IKZF2; [14]): 94.4 ± 0.1%
- GSPT1% degradation at 100 nM (GSPT1 [12]; 100 nM): 3.7 ± 1.3%
- GSPT1% degradation at 1 μM (GSPT1 [12]; 1 μM): 2.6 ± 1%
- CK1α % degradation at 100 nM (CK1α; [13]): 68.6 ± 1%
- CK1α % degradation at 1 μM (CK1α; [14]): 72.7 ± 0.8%
- DC50 (CK1α; read-out: DC50 CK1α): 10 nM
- increase in solubility in DMSO compared to DEG-35 ([2]; DMSO): 10 fold

Compound: COc1ccc2cc(C(=O)Nc3ccc4c(c3)CN(C3CCC(=O)N(C)C3=O)C4=O)ccc2c1 (stereo not shown) [Me-DEG-35, 6-methoxy-N-(2-(1-methyl-2,6-dioxopiperidin-3-yl)-1-oxoisoindolin-5-yl)-2-naphthamide]
- sensitivity of OCI-LY3 cells (in words) (DLBCL cell line OCI-LY3): limited activity
- sensitivity of A2780 cells (in words) [3]: limited activity
